In patent US9273058B2 (BRISTOL-MYERS SQUIBB COMPANY, priority 2013, dated 2016):

How the values were obtained:
[1] = biological target: CK1ε (Homo sapiens, UniProt P49674); test: CK1ε kinase assay (Caliper LabChip electrophoretic separation of fluoresceinated peptide substrate and product); assay type: biochemical; conditions: 200 pM CK1ε, 50 μM ATP, 1.5 μM peptide, 22 hours at room temperature; read-out: CK1ε IC50 range
Outline: (§1)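 Kinase reactions ran 22 h at room temperature, were stopped with EDTA, and phosphorylated product was separated electrophoretically from unphosphorylated fluoresceinated peptide. Compounds were tested at eleven concentrations from 10 mM DMSO stocks. IC50 by non-linear regression.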

[2] = biological target: CK1δ (Homo sapiens, UniProt P48730); test: CK1δ kinase assay (Caliper LabChip electrophoretic separation of fluoresceinated peptide substrate and product); assay type: biochemical; conditions: 200 pM CK1δ, 50 μM ATP, 1.5 μM peptide, 22 hours at room temperature; read-out: CK1δ IC50 range
Chain of CK1δ (P48730 whole entry): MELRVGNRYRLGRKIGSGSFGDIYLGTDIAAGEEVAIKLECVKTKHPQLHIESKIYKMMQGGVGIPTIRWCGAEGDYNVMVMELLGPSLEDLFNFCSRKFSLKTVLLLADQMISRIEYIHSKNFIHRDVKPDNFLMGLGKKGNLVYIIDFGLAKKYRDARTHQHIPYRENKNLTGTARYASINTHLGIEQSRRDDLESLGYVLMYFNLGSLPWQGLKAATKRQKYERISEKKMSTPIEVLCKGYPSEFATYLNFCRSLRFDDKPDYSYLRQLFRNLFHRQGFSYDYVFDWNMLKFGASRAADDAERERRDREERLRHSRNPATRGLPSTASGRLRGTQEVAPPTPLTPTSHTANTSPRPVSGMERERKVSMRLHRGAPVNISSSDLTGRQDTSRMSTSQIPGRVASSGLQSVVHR
Outline: as §1

Chain of CK1ε (P49674 whole entry): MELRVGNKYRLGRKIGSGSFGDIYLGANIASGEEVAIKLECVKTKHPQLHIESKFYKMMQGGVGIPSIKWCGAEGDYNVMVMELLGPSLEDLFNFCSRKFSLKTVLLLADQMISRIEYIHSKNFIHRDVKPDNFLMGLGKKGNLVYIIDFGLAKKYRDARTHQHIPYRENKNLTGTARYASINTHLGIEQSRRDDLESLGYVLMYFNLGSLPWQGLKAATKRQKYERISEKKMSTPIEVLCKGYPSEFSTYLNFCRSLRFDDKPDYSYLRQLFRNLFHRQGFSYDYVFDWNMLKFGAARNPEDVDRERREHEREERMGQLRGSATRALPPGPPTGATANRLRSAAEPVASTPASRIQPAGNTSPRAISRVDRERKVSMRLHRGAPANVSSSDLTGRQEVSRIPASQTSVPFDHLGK

Row | Compound | IC50 [1] [nM] | IC50 [2] [nM]
1 | NC(=O)c1c(-c2ccc(F)c(Cl)c2)nn2c1CN(C(=O)N[C@H]1C[C@H](F)C1)CC2 [Compound 189, 2-(3-Chloro-4-fluorophenyl)-N^5-((1r,3r)-3-fluorocyclobutyl)-6,7-dihydropyrazolo[1,5-a] pyrazine-3,5(4H)-dicarboxamide] | 0.01 to 10 | 0.01 to 10
2 | NC(=O)c1c(-c2ccc(F)c(Cl)c2)nn2c1CN(C(=O)NCC1CC(F)(F)C1)CC2 [Compound 193, 2-(3-Chloro-4-fluorophenyl)-N^5-((3,3-difluorocyclobutyl)methyl)-6,7-dihydropyrazolo[1,5-a] pyrazine-3,5(4H)-dicarboxamide] | 0.01 to 10 | 0.01 to 10
3 | NC(=O)c1c(-c2ccc(F)c(Cl)c2)nn2c1CN(C(=O)NC1CC3(C1)CC(F)(F)C3)CC2 [Compound 196, 2-(3-Chloro-4-fluorophenyl)-N^5-(6,6-difluorospiro[3.3]heptan-2-yl)-6,7-dihydropyrazolo[1,5-a] pyrazine-3,5(4H)-dicarboxamide] | 0.01 to 10 | 0.01 to 10
4 | CC(C)(NC(=O)N1CCn2nc(-c3ccc(Cl)c(Cl)c3)c(C(N)=O)c2C1)c1ccc(C#N)cc1 [Compound 200, N^5-(2-(4-Cyanophenyl)propan-2-yl)-2-(3,4-dichlorophenyl)-6,7-dihydropyrazolo[1,5-a] pyrazine-3,5(4H)-dicarboxamide] | 0.01 to 10 | 0.01 to 10
5 | NC(=O)c1c(-c2ccc(Cl)c(Cl)c2)nn2c1CN(C(=O)N[C@H]1C[C@H](F)C1)CC2 [Compound 202, 2-(3,4-Dichlorophenyl)-N^5-((1r,3r)-3-fluorocyclobutyl)-6,7-dihydropyrazolo[1,5-a] pyrazine-3,5(4H)-dicarboxamide] | 0.01 to 10 | 0.01 to 10
6 | NC(=O)c1c(-c2ccc(Cl)c(Cl)c2)nn2c1CN(C(=O)N[C@H]1C[C@@H](F)C1)CC2 [Compound 203, 2-(3,4-Dichlorophenyl)-N^5-((1s,3s)-3-fluorocyclobutyl)-6,7-dihydropyrazolo[1,5-a] pyrazine-3,5(4H)-dicarboxamide] | 0.01 to 10 | 0.01 to 10
7 | CO[C@H]1C[C@H](NC(=O)N2CCn3nc(-c4ccc(Cl)c(Cl)c4)c(C(N)=O)c3C2)C1 [Compound 204, 2-(3,4-Dichlorophenyl)-N^5-((1r,3r)-3-methoxycyclobutyl)-6,7-dihydropyrazolo[1,5-a] pyrazine-3,5(4H)-dicarboxamide] | 0.01 to 10 | 0.01 to 10
8 | NC(=O)c1c(-c2ccc(Cl)c(Cl)c2)nn2c1CN(C(=O)NCC1CC(F)(F)C1)CC2 [Compound 205, 2-(3,4-Dichlorophenyl)-N^5-((3,3-difluorocyclobutyl)methyl)-6,7-dihydropyrazolo[1,5-a] pyrazine-3,5(4H)-dicarboxamide] | 0.01 to 10 | 0.01 to 10
9 | NC(=O)c1c(-c2ccc(Cl)c(Cl)c2)nn2c1CN(C(=O)NCC1CCC(F)(F)CC1)CC2 [Compound 206, 2-(3,4-Dichlorophenyl)-N^5-((4,4-difluorocyclohexyl)methyl)-6,7-dihydropyrazolo[1,5-a] pyrazine-3,5(4H)-dicarboxamide] | 0.01 to 10 | 0.01 to 10
10 | NC(=O)c1c(-c2ccc(Cl)c(Cl)c2)nn2c1CN(C(=O)NC1CC3(C1)CC(F)(F)C3)CC2 [Compound 208, 2-(3,4-Dichlorophenyl)-N^5-(6,6-difluorospiro [3.3]heptan-2-yl)-6,7-dihydropyrazolo[1,5-a] pyrazine-3,5(4H)-dicarboxamide] | 0.01 to 10 | 0.01 to 10
11 | CC(C)(COC(F)(F)F)NC(=O)N1CCn2nc(-c3ccc(F)c(Cl)c3)c(C(N)=O)c2C1 [Compound 212, 2-(3-Chloro-4-fluorophenyl)-N^5-(2-methyl-1-(trifluoromethoxy)propan-2-yl)-6,7-dihydropyrazolo[1,5-a]pyrazine-3,5(4H)-dicarboxamide] | 0.01 to 10 | 0.01 to 10

The next lines start with the values.

Row | IC50 [1] [nM] | IC50 [2] [nM] | Compound
12 | 0.01 to 10 | 0.01 to 10 | CC(C)(NC(=O)N1CCn2nc(-c3ccc(F)c(Cl)c3)c(C(N)=O)c2C1)c1ccc(C#N)cc1 [Compound 187, 2-(3-Chloro-4-fluorophenyl)-N^5-(2-(4-cyanophenyl)propan-2-yl)-6,7-dihydropyrazolo [1,5-a]pyrazine-3,5(4H)-dicarboxamide]
13 | 0.01 to 10 | 0.01 to 10 | CC(F)(F)C(C)(C)NC(=O)N1CCn2nc(-c3ccc(F)c(Cl)c3)c(C(N)=O)c2C1 [Compound 188, 2-(3-Chloro-4-fluorophenyl)-N^5-(3,3-difluoro-2-methylbutan-2-yl)-6,7-dihydropyrazolo[1,5-a] pyrazine-3,5(4H)-dicarboxamide]
14 | 0.01 to 10 | 0.01 to 10 | NC(=O)c1c(-c2ccc(F)c(Cl)c2)nn2c1CN(C(=O)N[C@H]1C[C@@H](F)C1)CC2 [Compound 190, 2-(3-Chloro-4-fluorophenyl)-N^5-((1s,3s)-3-fluorocyclobutyl)-6,7-dihydropyrazolo[1,5-a] pyrazine-3,5(4H)-dicarboxamide]
15 | 0.01 to 10 | 0.01 to 10 | NC(=O)c1c(-c2ccc(F)c(Cl)c2)nn2c1CN(C(=O)NC1CC3(CC3)C1)CC2 [Compound 195, 2-(3-Chloro-4-fluorophenyl)-N^5-(spiro [2.3]hexan-5-yl)-6,7-dihydropyrazolo[1,5-a] pyrazine-3,5(4H)-dicarboxamide]
16 | 0.01 to 10 | 0.01 to 10 | CC(C)(NC(=O)N1CCn2nc(-c3ccc(Cl)c(Cl)c3)c(C(N)=O)c2C1)C(F)F [Compound 199, 2-(3,4-Dichlorophenyl)-N^5-(1,1-difluoro-2-methylpropan-2-yl)-6,7-dihydropyrazolo[1,5-a]pyrazine-3,5(4H)-dicarboxamide]
17 | 0.01 to 10 | 0.01 to 10 | CC(CF)(CF)NC(=O)N1CCn2nc(-c3ccc(F)c(Cl)c3)c(C(N)=O)c2C1 [Compound 209, 2-(3-Chloro-4-fluorophenyl)-N^5-(1,3-difluoro-2-methylpropan-2-yl)-6,7-dihydropyrazolo[1,5-a]pyrazine-3,5(4H)-dicarboxamide]
18 | 10 to 100 | 10 to 100 | CC(C)(NC(=O)N1CCn2nc(-c3ccc(F)c(Cl)c3)c(C(N)=O)c2C1)C(=O)NC1CC1 [Compound 213, 2-(3-Chloro-4-fluorophenyl)-N^5-(1-(cyclopropylamino)-2-methyl-1-oxopropan-2-yl)-6,7-dihydropyrazolo[1,5-a]pyrazine-3,5(4H)-dicarboxamide]
19 | 10 to 100 | 10 to 100 | CNC(=O)C(C)(C)NC(=O)N1CCn2nc(-c3ccc(F)c(Cl)c3)c(C(N)=O)c2C1 [Compound 214, 2-(3-Chloro-4-fluorophenyl)-N^5-(2-methyl-1-(methylamino)-1-oxopropan-2-yl)-6,7-dihydropyrazolo[1,5-a] pyrazine-3,5(4H)-dicarboxamide]
20 | 10 to 100 | 0.01 to 10 | CC(C)(NC(=O)N1CCn2nc(-c3ccc(F)c(Cl)c3)c(C(N)=O)c2C1)C(=O)N1CCCC1 [Compound 215, 2-(3-Chloro-4-fluorophenyl)-N^5-(2-methyl-1-oxo-1-(pyrrolidin-1-yl)propan-2-yl)-6,7-dihydropyrazolo [1,5-a]pyrazine-3,5(4H)-dicarboxamide]
21 | 100 to 2000 | 10 to 100 | CC(C)NC(=O)C(C)(C)NC(=O)N1CCn2nc(-c3ccc(F)c(Cl)c3)c(C(N)=O)c2C1 [Compound 216, 2-(3-Chloro-4-fluorophenyl)-N^5-(1-(isopropylamino)-2-methyl-1-oxopropan-2-yl)-6,7-dihydropyrazolo[1,5-a] pyrazine-3,5(4H)-dicarboxamide]
